From ChEMBL document CHEMBL1155476, “A vHTS approach for the identification of beta-adrenoceptor ligands” (Bioorg Med Chem Lett, 2010)
Values after ≈ are worked out from the molar mass of the structure shown.

Legend:
[1] = target: T1, Beta-1 adrenergic receptor (Homo sapiens, UniProt P08588); test: Displacement of [125I]cyanopindolol from human adrenergic beta-1 receptor expressed in CHOK1 cells; type: cell-based, CHO-K1
Target sequence in this assay (P08588 whole entry): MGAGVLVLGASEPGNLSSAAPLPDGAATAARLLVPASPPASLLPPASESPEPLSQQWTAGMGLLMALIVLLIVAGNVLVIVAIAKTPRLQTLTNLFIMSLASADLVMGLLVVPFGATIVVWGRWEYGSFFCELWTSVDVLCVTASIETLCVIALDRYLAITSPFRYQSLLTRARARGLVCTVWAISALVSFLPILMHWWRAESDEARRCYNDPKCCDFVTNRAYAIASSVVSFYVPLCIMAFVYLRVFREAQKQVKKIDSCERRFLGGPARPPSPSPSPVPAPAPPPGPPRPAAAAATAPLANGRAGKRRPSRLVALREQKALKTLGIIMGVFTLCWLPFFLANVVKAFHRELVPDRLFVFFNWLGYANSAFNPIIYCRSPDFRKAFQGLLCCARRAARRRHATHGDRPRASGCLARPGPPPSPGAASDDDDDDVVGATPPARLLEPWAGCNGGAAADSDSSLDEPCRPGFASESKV

[2] = target: T2, Beta-2 adrenergic receptor (Homo sapiens, UniProt P07550); test: biochemical
Description: Displacement of [125I]cyanopindolol from human adrenergic beta2 receptor expressed in CHOK1 cells

[3] = target: T3, Beta-3 adrenergic receptor (Homo sapiens, UniProt P13945); test: biochemical
Description: Displacement of [125I]cyanopindolol from human adrenergic beta3 receptor expressed in CHOK1 cells

[4] = target: T3, Beta-3 adrenergic receptor
Description: Agonist activity at human adrenergic beta3 receptor expressed in CHOK1 cells assessed as cAMP accumulation by HTRF assay

[5] = target: T2, Beta-2 adrenergic receptor; test: Antagonist activity at human adrenergic beta2 receptor expressed in CHOK1 cells assessed as inhibition of cAMP accumulation by HTRF assay; type: functional, cell-based, CHO-K1
[6] = target: T1, Beta-1 adrenergic receptor; test: Agonist activity at human adrenergic beta-1 receptor expressed in CHOK1 cells assessed as cAMP accumulation by HTRF assay; type: functional, cell-based, CHO-K1
Target sequence in this assay (P08588 whole entry): as above

[7] = target: T1, Beta-1 adrenergic receptor; test: Intrinsic activity at human adrenergic beta-1 receptor expressed in CHOK1 cells assessed as cAMP accumulation by HTRF assay relative to isoproterenol; type: functional, cell-based; conditions: CHO-K1
Target sequence in this assay (P08588 whole entry, looked up): as the sequence (P08588 whole entry) above

[8] = Permeability by PAMPA method; type: ADME
[9] = Solubility at pH 6; type: physicochemical; conditions: buffer
[10] = Cytotoxicity against human HepG2 cells; type: cell-based; conditions: read-out: ED50 (the source's name)
[11] = Half life in Wistar rat at 10 mg/kg, po; type: ADME, organism-based; parameters: dose 10 mg/kg, route oral; conditions: in vivo
[12] = Solubility at pH 4; type: physicochemical; conditions: buffer
[13] = Cytotoxicity against human PBMC cells; type: cell-based; conditions: read-out: ED50 (the source's name)
[14] = Cmax in Wistar rat at 10 mg/kg, po; type: ADME, organism-based; parameters: dose 10 mg/kg, route oral; conditions: in vivo
[15] = target: T1, Beta-1 adrenergic receptor; test: Antagonist activity at human adrenergic beta-1 receptor expressed in CHOK1 cells assessed as inhibition of cAMP accumulation by HTRF assay; type: functional, cell-based, CHO-K1
Target sequence in this assay (P08588 whole entry): as above

[16] = target: T3, Beta-3 adrenergic receptor; test: Antagonist activity at human adrenergic beta3 receptor expressed in CHOK1 cells assessed as inhibition of cAMP accumulation by HTRF assay; type: functional, cell-based, CHO-K1

T2 sequence (P07550 whole entry): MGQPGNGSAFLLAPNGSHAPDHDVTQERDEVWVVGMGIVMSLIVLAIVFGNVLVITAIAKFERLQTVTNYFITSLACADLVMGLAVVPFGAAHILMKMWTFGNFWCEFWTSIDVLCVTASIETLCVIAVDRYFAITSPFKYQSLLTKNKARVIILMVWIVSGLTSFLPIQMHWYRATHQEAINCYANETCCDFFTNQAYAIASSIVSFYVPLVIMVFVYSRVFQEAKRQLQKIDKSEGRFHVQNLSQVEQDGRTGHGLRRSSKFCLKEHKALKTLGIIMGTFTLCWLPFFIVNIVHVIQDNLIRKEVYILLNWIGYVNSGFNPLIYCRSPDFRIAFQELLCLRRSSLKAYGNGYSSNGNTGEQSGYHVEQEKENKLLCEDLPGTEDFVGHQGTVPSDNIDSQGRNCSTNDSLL
T3 sequence (P13945 whole entry): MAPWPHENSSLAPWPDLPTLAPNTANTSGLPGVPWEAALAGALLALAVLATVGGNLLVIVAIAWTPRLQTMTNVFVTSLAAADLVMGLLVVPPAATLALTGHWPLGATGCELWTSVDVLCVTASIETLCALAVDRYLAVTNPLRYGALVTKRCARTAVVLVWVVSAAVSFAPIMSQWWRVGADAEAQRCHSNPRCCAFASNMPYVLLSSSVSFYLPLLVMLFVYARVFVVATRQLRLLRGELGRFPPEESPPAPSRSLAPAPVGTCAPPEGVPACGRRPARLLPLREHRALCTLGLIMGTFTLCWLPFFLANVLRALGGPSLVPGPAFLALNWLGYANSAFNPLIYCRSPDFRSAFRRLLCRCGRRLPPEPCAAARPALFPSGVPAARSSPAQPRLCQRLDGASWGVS

SMILES	Ki ([1]; read-out: Ki) [nM]	Ki [2] [nM]	Ki [3] [nM]	also measured
O=C1c2cccc3cccc(c23)C(=O)N1C1CCN(CC(O)COc2cccc3[nH]c4ccccc4c23)CC1 (configuration not stated)	76	57	98	–
CC(C)c1ccccc1OCC(O)CN1CCC(CN2C(=O)c3cccc4cccc(c34)C2=O)CC1 (configuration not stated)	250	230	1030	–
O=C1c2cccc3cc(O)cc(c23)C(=O)N1CC1CCN(CC(O)COc2cccc3[nH]c4ccccc4c23)CC1 (configuration not stated)	250	37	590	EC50 [4]: 234 nM; IC50 [5]: 120 nM; EC50 [6]: 80 nM; Intrinsic activity [7]: 40%
C=CCc1ccccc1OCC(O)CN1CCC(CN2C(=O)c3cccc4cc(OC)cc(c34)C2=O)CC1 (configuration not stated)	300	78	1510	–
O=C(c1ccccc1)C1CCN(CC(O)COc2cccc3[nH]c4ccccc4c23)CC1 (configuration not stated)	16	0.2	230	–
O=C(c1ccc(F)cc1)C1CCN(CC(O)COc2cccc3[nH]c4ccccc4c23)CC1 (configuration not stated)	32	0.3	250	EC50 [4]: 385 nM; Activity [8]: Active; solubility [9]: 10 µM (≈ 4.47 µg/mL); IC50 [5]: 32 nM; EC50 [6]: 310 nM; CC50 [10]: 19000 nM; half-life [11]: 7.5 h; solubility [12]: 180 µM (≈ 80.4 µg/mL); CC50 [13]: 9000 nM; Intrinsic activity [7]: 20%; Cmax [14]: 290 nM
O=C1c2cccc3cccc(c23)C(=O)N1CC1CCN(CC(O)COc2ccc3[nH]ccc3c2)CC1 (configuration not stated)	4530	1260	8500	–
C=CCc1ccccc1OCC(O)CN1CCOCC1 (configuration not stated)	114	7	4960	–
C=CCc1ccccc1OCC(O)CNC1CCN(C)CC1 (configuration not stated)	260	2.4	6220	–
CC(C)c1ccccc1OCC(O)CN1CCC(CN2C(=O)c3ccccc3C2=O)CC1 (configuration not stated)	720	17	1480	–
CC(C)c1ccccc1OCC(O)CN1CCC(CN2C(=O)CCCC2=O)CC1 (configuration not stated)	245	9	2900	–
C=CCc1ccccc1OCC(O)CN1CCC(N2C(=O)c3cccc4cccc(c34)C2=O)CC1 (configuration not stated)	1050	40	2340	–
Cc1ccc(C(C)C)c(OCC(O)CN2CCC(CN3C(=O)c4cccc5cccc(c45)C3=O)CC2)c1 (configuration not stated)	1000	80	411	IC50 [15]: 1380 nM; IC50 [16]: 1470 nM
COc1ccc(C(=O)C2CCN(CC(O)COc3cccc4[nH]c5ccccc5c34)CC2)cc1 (configuration not stated)	13	0.2	9180	–
CC(C)c1ccccc1OCC(O)CN1CCOCC1 (configuration not stated)	12	1.2	1770	–
COc1ccc(OCC(O)CN2CCC(CN3C(=O)c4cccc5cccc(c45)C3=O)CC2)c(C(C)(C)C)c1 (configuration not stated)	530	300	3380	–
CC(C)c1ccccc1OCC(O)CNC1CCN(C)CC1 (configuration not stated)	89	17	1060	–

SMILES	Ki ([1]; read-out: Ki) [nM]	Ki [2] [nM]	Ki [3] [nM]	also measured
COc1ccc(OCC(O)CNC2CCN(c3ncnc4scc(-c5ccccc5)c34)CC2)cc1 (configuration not stated)	> 10000	–	–	–
C=CCc1ccccc1OCC(O)CN1CCC(CN2C(=O)c3ccccc3C2=O)CC1 (configuration not stated)	190	50	3400	–
Cc1ccc(C(C)C)c(OCC(O)CN2CCN(CCN3C(=O)c4cccc5cccc(c45)C3=O)CC2)c1 (configuration not stated)	–	110	> 10000	Ki ([1]; cho-k1): Not Active
CC(C)c1ccccc1OCC(O)CN1CCC(N2C(=O)c3cccc4cccc(c34)C2=O)CC1 (configuration not stated)	240	13	3820	–
OC(COc1cccc2[nH]c3ccccc3c12)CN1CCC(Cc2ccccc2)CC1 (configuration not stated)	14	0.5	230	–
CC(C)c1ccccc1OCC(O)CN1CCN(CCN2C(=O)c3cccc4cccc(c34)C2=O)CC1 (configuration not stated)	740	70	1480	–
COc1ccc(CC2CCN(CC(O)COc3cccc4[nH]c5ccccc5c34)CC2)cc1 (configuration not stated)	3.4	0.2	455	–
O=C1c2cccc3cccc(c23)C(=O)N1CC1CCN(CC(O)COc2cccc3[nH]c4ccccc4c23)CC1 (configuration not stated)	7	3	225	–
O=C1c2cccc3cccc(c23)C(=O)N1CC1CCN(CC(O)COc2cccc3[nH]ccc23)CC1 (configuration not stated)	27	120	1000	–
C=CCc1ccccc1OCC(O)CN1CCC(CN2C(=O)CCCC2=O)CC1 (configuration not stated)	440	80	11000	–
COc1cc2c3c(cccc3c1)C(=O)N(CC1CCN(CC(O)COc3ccccc3C(C)C)CC1)C2=O (configuration not stated)	209	38	698	–
COc1cc2c3c(cccc3c1)C(=O)N(CC1CCN(CC(O)COc3cccc4[nH]c5ccccc5c34)CC1)C2=O (configuration not stated)	0.1	8	410	–
C=CCc1ccccc1OCC(O)CN1CCC(CN2C(=O)c3cccc4cc(O)cc(c34)C2=O)CC1 (configuration not stated)	170	135	2200	–
OC(COc1cccc2[nH]c3ccccc3c12)CN1CCC(Cc2cccnc2)CC1 (configuration not stated)	1	0.1	72	–
C=CCc1ccc(OCC(O)CN2CCC(CN3C(=O)c4cccc5cccc(c45)C3=O)CC2)c(OC)c1 (configuration not stated)	1360	3290	3290	–
C=CCc1ccccc1OCC(O)CN1CCC(CN2C(=O)c3cccc4cccc(c34)C2=O)CC1 (configuration not stated)	80	–	409	EC50 [4]: 2400 nM
C=CCc1ccccc1OCC(O)CN1CCN(CCN2C(=O)c3cccc4cccc(c34)C2=O)CC1 (configuration not stated)	293	150	3100	–
